These results are taken from US20190380985A1, “Composition Containing N-acetyldiaminobutyric Acid” (bitop AG, priority 2016, published 2019).

Assay [1] deals with HaCaT cells. Briefly: UV protection test via TEER assay. In kind it is cell-based, human. Conditions: 100 mM, overnight preincubation, 45 min UV-B, 24 h later; FIG. 2. An excerpt: A characteristic feature of epithelial as well as endothelial cell layers is the formation of intercellular connections leading to a dense cell barrier separating the basolateral (abluminal) side from the apical (luminal) side. The cell layers form selectively permeable interfaces between different compartments, in this way controlling the diffusion in intercellular space as well as intracellular transport processes. This is ensured by tight junctions (paracellular barriers in the intercellular space). The integrity of these barriers is determined by the so-called TEER method (transepithelial/transendothelial electrical resistance). A defined DC voltage is applied to two electrodes on both sides of the cell layer. The flowing current is measured, which yields the respective resistance results according to Ohm's law.
HaCaT cells were used, a human keratinocyte cell line. These were applied to PET membranes (“ThinCerts®”). It was waited until the cells had formed a complete and intact monolayer. […]
In order to accomplish a closer investigation of the protective effect of membranes stabilized by N-acetyldiaminobutyric acid against UV radiation, keratinocytes were incubated overnight in a cell culture medium with PBS, NADA (50 mM and 100 mM) and other compounds. […] The cells were incubated for another 24 hours and the TEER values were determined. […]

The subject of another assay is TR146 cell line. Briefly: Membrane stabilization, calcein AM assay, TR146. In kind it is cell-based, human. Conditions: different concentrations, compared to PBS only; FIG. 5. As for the experimental part: This is a buccal human cell line of oral mucosa cells. The cells were placed in a microtiter plate having 96 wells. As soon as confluence was reached, the cells were washed with PBS and provided with different concentrations of N-acetyldiaminobutyric acid. The negative control contained only PBS, the positive control cDPG (cyclic 2,3-diphosphoglycerate). Following incubation, the cells were again washed with PBS and incubated with 5 μM of calcein AM for a period of 45 min. The hydrolysis of calcein AM, which itself is non-fluorescent, by intracellular esterases produces calcein, a hydrophilic, highly fluorescent compound that is retained in the cytoplasm of the cells. Accordingly, high fluorescence is indicative of high cell viability.

A further assay deals with Phenion skin model. In words: UV protection test using LDH assay on full thickness skin model. In kind it is cell-based. Conditions: 4 h incubation, compared with PBS, FIG. 3. On the procedure:
In order to further evaluate the UV, protection effect of NADA, a full thickness skin model of Henkel (Phenion skin, model) was used. This is based on a bovine collagen structure, which is morphologically equivalent to human skin and thus allows examinations to be easily carried out. The Phenion skin model was incubated with the test substances for 4 hours. These were applied directly to the top surface. Subsequently, the Phenion skin model was exposed to UV-B radiation for 2 hours. […] The skin model was then incubated for another 24 hours and the LDH (lactate dehydrogenase) value was determined, which is a measure of the degree of damage caused to the cells.

The test system of the next assay is SIRC cell line. Briefly: Matsuo moisturizing assay (calcein AM viability after air-drying). In kind it is cell-based, rabbit. As to conditions: 25 mM; 15 min treatment, 45 min air-drying; FIG. 1. On the procedure: The skin/mucosal moisturizing effect of N-acetyldiaminobutyric acid was investigated using a Matsuo moisturizing assay (Matsuo, Br J. Opthalmol. 85: 610-612). An SIRC cell line isolated from rabbit eyes was used for this purpose. For the experiments, 30,000 cells were placed in each well of a 96 well microtiter plate. After approx. 24 h a complete monolayer had formed in each case. The supernatant was then removed and 100 μl of the test substances diluted in PBS (phosphate buffered salt solution) were applied to the cells for 15 min. Then, the supernatant was removed again. At this stage, the cells were not washed with PBS. Under sterile conditions the cells were air-dried over a period of 45 min. Following this, the cells were washed three times with PBS. To determine cell viability calcein AM staining (calcein-acetoxymethyl ester) was used. Calcein is a fluorescent dye. After the transport of calcein AM into the living cell, the ester groups were cleaved by esterases of the cell resulting in the formation of calcein causing a strongly green fluorescent complex to be formed with calcium ions present in the cell. […] In turn, a high cell viability attests to good wetting properties of the test substances.
The result is shown in FIG. 1 in comparison to the effect of ectoine and hyaluronic acid. […]

A further assay relates to claudin-1. In words: Claudin-1 specific ELISA after heat stress (tight junctions). In kind it is cell-based, human. Conditions: 6 h pretreatment 10-175 mM, 44° C. 30 min, FIG. 8. An excerpt:
The examination focused on the upregulation of claudins, membrane proteins as constituents of tights junctions, which close off the gaps between the cells of the epithelium so that a barrier is formed. This barrier controls the penetration of molecules via the epithelium. Specifically, the pore occluding claudin-1 was examined. An increased expression of claudin-1 leads to higher imperviousness of the epithelial membrane and increased transepithelial electrical resistance (TEER). The permeability is thus reduced.
The epithelial cell line (HaCaT) used for the experiment was cultivated in wells on a microtiter plate until a closed cell monolayer had developed. Subsequently, the cells were pretreated with NADA for 6 hours in the cell culture medium (10, 25, 50, 75, 100 and 175 mM). The cells were then suddenly exposed to a temperature of 44° C. for a period of 30 min. before being kept at 37° C. for another 24 and 48 hours respectively. The cells were harvested and the lysate was analyzed using a claudin-1 specific ELISA (enzyme-linked immunosorbent assay). The results can be seen from FIG. 8.
A general note: In an ELISA, binding on a coated surface is turned into a signal by an enzyme label.

In the next assay the test system is LLC-PK1 cell line. Briefly: Membrane stabilization, calcein AM assay, LLC-PK1. In kind it is cell-based. Conditions: LLC-PK1 cells; FIG. 6.
In assay [2] the test system is HaCaT cells. Briefly: ATP assay on aged keratinocytes (cell metabolism). In kind it is cell-based, human. Conditions: 5 h incubation in PBS, compared to PBS only (0%), FIG. 7. From the text:
HaCaT cells (a keratinocyte cell line) were placed on a 96-well microtiter plate and a cell culture was allowed to form for a period of at least one week until cell growth was stopped by contact inhibition. Following this, the cells were cultivated for another week to simulate the ageing process. The cell culture medium was changed over to PBS with the addition of NADA and reference substances such as glucosylglycerol, ectoine (28Extremoin) and Myramaze®, a commercially available anti-aging product. The cells were incubated for a period of 5 hours. Finally, an ATP assay was prepared, whereby a high ATP synthesis indicates a high degree of metabolism and thus attests to cell vitality. The results can be seen from FIG. 7.

In assay [3] the test system is HaCaT cells. In words: IR protection test using LDH assay. As to conditions: 5 h preincubation, 44° C. for 30 min, 60 h at 37° C., FIG. 4; for liberation of LDH (protection against heat/IR): compared to untreated cells. In kind it is cell-based, human. An excerpt:
Infrared (IR) radiation brings about an increase in skin temperature, which is associated with an increase in the number of free radicals and increased expression of heat shock inducing metalloproteases (MMP). A permanent exposure to IR radiation may result in an increase in cell death rate through apoptosis. In order to determine the potential of NADA and, for comparative purposes, ectoine on eukaryotic cells regarding the protection against heat and IR radiation, HaCaT cells (human keratinocyte cell line) were applied to 96 wells of a microtiter plate. After a uniform cell layer had formed, the test substances were applied to the medium and the cells were incubated for 5 hours at a temperature of 37° C. Following preincubation, the cells were exposed to a temperature of 44° C. for 30 min. The cells were then incubated at 37° C. for a further 60 hours.

Turning to `CC(=O)NCCC(N)C(=O)O` (stereo not drawn) [NADA, N-acetyldiaminobutyric acid], the “change of the TEER value after UV-B radiation” value in the assay with HaCaT cells [1] was “significant protection of the cell membrane”. Besides, the “calcein fluorescence (stabilization of epithelial cells)” value in the assay with TR146 cell line was “significant, concentration-dependent stabilization of the epithelial cells”. Also, the “LDH value after UV exposure (UV protection)” value in the assay with Phenion skin model (2 h UV-B, 24 h later) is reported as “shows UV protection properties”. In addition, in the assay with Phenion skin model (before UV-B), the “LDH value before UV exposure” value was “approximately the same for PBS and NADA”. For the same compound, in the assay on SIRC cell line, the “viability of the cells and thus the humidification after drying of the cells” value was “comparable results to ectoine”. In addition, the “expression of claudin-1” value in the assay with claudin-1 (then 24 hours at 37° C.) and in the assay with claudin-1 (then 48 hours at 37° C.) was “distinct increase in the expression of claudin-1” in each case. Further, the “calcein fluorescence (membrane stabilizing effect)” value in the assay with LLC-PK1 cell line is “membrane stabilizing effect”. The “ATP activity (cell metabolism)” value with HaCaT cells [2] was “reactivation of aged keratinocytes”. For the same compound, in the assay on HaCaT cells [3], the “protection against IR radiation relative to ectoine” value was “more effective than ectoine”. Moreover, the “liberation of LDH (protection against heat/IR)” value in the assay on HaCaT cells [3] is “offer protection against intense IR radiation”.
On to `CC1=NC(C(=O)O)CCN1` (stereo not drawn) [ectoine, 2-methyl-1,4,5,6-tetrahydropyrimidine-4-carboxylic acid, reference compound], for which the “liberation of LDH (protection against heat/IR)” value in the assay on HaCaT cells [3] was “offer protection against intense IR radiation”.
